Assay results: ChEMBL document CHEMBL4043081, “Do spiroindolines have the potential to replace vesamicol as lead compound for the development of radioligands targeting the vesicular acetylcholine transporter?” (Bioorg Med Chem, 2017)
Activity calls are given as the source filed them. The calls are words filed in the database; no cut-off is given here.

Columns and labels:
[1] = target: T1, Vesicular acetylcholine transporter (Rattus norvegicus, UniProt Q62666); assay: Displacement of [3H]vesamicol from rat VAChT expressed in rat PC12 cell membranes incubated for 120 mins by liquid scintillation counting
T1 sequence (Q62666 whole entry): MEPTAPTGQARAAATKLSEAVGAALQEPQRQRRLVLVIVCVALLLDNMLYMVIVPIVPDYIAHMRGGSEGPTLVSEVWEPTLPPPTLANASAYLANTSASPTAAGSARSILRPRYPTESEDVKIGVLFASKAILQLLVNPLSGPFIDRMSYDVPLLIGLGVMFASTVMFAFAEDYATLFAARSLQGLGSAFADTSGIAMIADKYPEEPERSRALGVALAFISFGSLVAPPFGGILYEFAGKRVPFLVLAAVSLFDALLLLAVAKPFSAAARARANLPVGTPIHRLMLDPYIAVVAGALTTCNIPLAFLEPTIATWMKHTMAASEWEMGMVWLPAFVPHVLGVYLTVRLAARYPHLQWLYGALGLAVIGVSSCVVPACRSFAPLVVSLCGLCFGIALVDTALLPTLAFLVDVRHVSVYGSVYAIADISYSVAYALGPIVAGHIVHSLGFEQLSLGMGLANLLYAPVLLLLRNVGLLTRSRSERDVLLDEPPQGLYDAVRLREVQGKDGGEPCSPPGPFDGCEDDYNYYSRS

[2] = target: Sigma non-opioid intracellular receptor 1 (Rattus norvegicus, UniProt Q9R0C9); assay: Displacement of [3H]pentazocine from sigma1 receptor in Sprague-Dawley rat cortex membranes incubated for 120 mins by liquid scintillation counting; assay type: cell membranes
Sigma non-opioid intracellular receptor 1, sequence (Q9R0C9 whole entry): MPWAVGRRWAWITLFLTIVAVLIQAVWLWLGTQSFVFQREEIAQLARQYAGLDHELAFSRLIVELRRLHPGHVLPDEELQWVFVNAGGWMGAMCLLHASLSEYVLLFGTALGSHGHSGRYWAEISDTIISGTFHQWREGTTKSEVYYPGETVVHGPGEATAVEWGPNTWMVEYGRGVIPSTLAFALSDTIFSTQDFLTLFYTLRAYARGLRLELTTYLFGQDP

[3] = target: T2, Sigma intracellular receptor 2 (Rattus norvegicus, UniProt Q5U3Y7); assay: Displacement of [3H]pentazocine from sigma2 receptor in Sprague-Dawley rat liver membranes incubated for 120 mins by liquid scintillation counting; assay type: cell membranes, Membrane
T2 sequence (Q5U3Y7 whole entry): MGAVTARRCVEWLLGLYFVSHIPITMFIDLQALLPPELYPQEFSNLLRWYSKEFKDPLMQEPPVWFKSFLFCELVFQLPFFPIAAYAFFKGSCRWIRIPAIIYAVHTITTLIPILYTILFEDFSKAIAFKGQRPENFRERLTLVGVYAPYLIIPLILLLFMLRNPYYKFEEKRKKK

[4] = target: T3, Vesicular acetylcholine transporter (Rattus norvegicus) (UniProt Q62666); assay: Binding affinity to rat VAChT expressed in rat PC12 cell membranes assessed as induction of rightward shift of vesamicol binding curves at 100 and 100 nM incubated for 120 mins by liquid scintillation counting based [3H]vesamicol binding assay
T3 sequence (whole entry): T1 sequence (Q62666 whole entry)

Q: What does the source list for `O=C(c1ccnc(F)c1)N1CC2(CCN(C/C=C/c3ccc(Cl)cc3)CC2)c2cc(F)ccc21`?
A: Ki [1]: 110 nM; Ki [2]: 55.4 nM; Ki [3]: 748 nM

Q: Which results are given for `O=C(c1ccnc(Cl)c1)N1CC2(CCN(C/C=C/c3ccc(Cl)cc3)CC2)c2cc(F)ccc21`?
A: Ki [1]: 153 nM; Ki [2]: 137 nM; Activity [4]: Active; Ki [3]: 1190 nM

Q: What does the source list for `O=C(c1ccc(F)nc1)N1CC2(CCN(C/C=C/c3ccc(Cl)cc3)CC2)c2cc(F)ccc21`?
A: Ki [1]: 376 nM; Ki [2]: 282 nM; Ki [3]: > 10000 nM

Q: What does the source list for `O=C(c1ccc(F)cc1)N1CC2(CCN(C/C=C/c3ccc(Cl)cc3)CC2)c2cc(F)ccc21`?
A: Ki [1]: 243 nM; Ki [2]: 293 nM; Ki [3]: 1200 nM

Q: Which results are given for `O=C(c1ccc(Br)nc1)N1CC2(CCN(C/C=C/c3ccc(Cl)cc3)CC2)c2cc(F)ccc21`?
A: Ki [1]: 39.2 nM; Ki [2]: 179 nM; Ki [3]: 60.1 nM

Q: How did the Ki [1] turn out when `O=C(OCCF)N1CC2(CCN(C/C=C/c3ccc(Cl)cc3)CC2)c2cc(F)ccc21` was run?
A: 328 nM

Q: And the Ki [2]?
A: 44.1 nM

Q: What about the Ki [3] of the same compound?
A: 1520 nM
